US20230302131A1, “MPC INHIBITION FOR PRODUCING T-CELLS WITH A MEMORY PHENOTYPE” (UNIVERSITÉ DE LAUSANNE, priority 2020, published 2023)

Tests used:
[1] = test system: histone 3 (H3K4-3Me, H3K27-Ac) in CD8 T cells; assay: Western blot of histone 3 modifications; assay type: cell-based, mouse
Text: Mechanistically, it was hypothesized by the inventors that epigenetic processes might underlie the observed long-term memory phenotype and anti-tumor activity upon metabolic intervention with MPCi. […] Since acetyl-CoA is the acetyl donor for the acetylation of proteins, amongst which also histones, histone post-translational modifications were examined that are known to make chromatin accessible to transcription factors, a characteristic of memory T cells. […] These are marks known to open chromatin and make it accessible for transcription factor docking. […] Amongst those were Sell, Tcf7 and Ccr7, thereby correlating accessible chromatin with increased mRNA copies (FIG. 3E and see above).
Cells were lysed in RIPA lysis buffer (50 mM TrisHCl pH8, 150 mM NaCl, 1% Triton X 100, 0.5% Sodium deoxycholate, 0.1% SDS) and Halt protease/phosphatase cocktail inhibitors (Roche) and denatured by heat. Proteins were quantified by BCA protein assay kit (Thermo Scientific). Proteins were separated on 12.5% polyacrylamide gradient gels and transferred onto nitrocellulose membranes 0.2 μm (Biorad). Non-specific binding sites were blocked in milk 5% and membranes were incubated with primary antibodies (Cell Signaling). […]

[2] = test system: B16 melanoma tumors expressing HER2; assay: HER2-CAR T cell production with UK5099 and adoptive transfer into mice with B16 tumors expressing HER2; assay type: in vivo, mouse
Protocol: For each retroviral preparation, 8×10^6 Phoenix ECO cells (ATCC, CRL-3214) were plated in a T150 tissue culture flask in RPMI medium supplemented with 10% FCS, 10 mM HEPES and 50 U/ml Penicillin-Streptomycin. On the next day, cells were transfected with 21 μg of the retroviral construct with Turbofect transfection reagent (Thermo Fischer Scientific), according to the manufacturer protocol. The medium was changed daily and collected at 48 h and 72 h post transfection. 48 h and 72 h virus supernatants were pooled and sedimented at 22000rcf for 2 h at 4° C. Finally, retrovirus pellets were resuspended in 2 ml of full RPMI medium and divided in 8 aliquots of 250 μl each, which were snap-frozen on dry ice and stored at −80° C.
Spleens from wild type CD45.1.2 mice were smashed on a 70 µm cell strainer. CD8 T cells were purified using the EasySep™ Mouse CD8+ T Cell Isolation Kit (StemCell) according to the manufacturer protocol. 0.5×10^6 CD8 T cells were plated in 48 well plates in 0.5 ml of complete RPMI 1640 medium supplemented with 10% FCS, antibiotics and 50 IU/ml of recombinant human IL-2, and exposed to either DMSO or 20 μM UK5099. Mouse T-cells were activated with Activator CD3/CD28 Dynabeads (Gibco) at a ratio of 2 beads per cell. Retroviral infection was conducted at 37° C. for 24 h. Untreated 48-well plates were coated for 24 h with […] of recombinant human fibronectin (Takara Clontech) at 4° C., followed by PBS 2% BSA for 30 min at RT and finally washed with PBS. One aliquot of concentrated retroviruses was plated in each fibronectin-coated 48-well plates and centrifuged for 90 min at 2000rcf and 32° C. Then, 0.5×10^6 of 24 h-activated CD8 T cells were added on top of the viruses and spun for 10 min at 400rcf and 32° C. On day 3, the medium was replaced with 10 IU/ml recombinant human IL-2, 10 ng/ml recombinant human IL-7 and 10 ng/ml recombinant human IL-15, containing either DMSO or 20 μM UK5099. Cells were then split every second day.
CD45.2 C57BL/6 mice were engrafted subcutaneously with 4×10^5 B16F10 tumors modified to express HER2. Six days later, mice were lymphodepleted with 100 mg/kg cyclophosphamide (Sigma Aldrich, C7397) injected i.p., and homogeneous groups were constituted with regard to tumor volume. T cells (5×10^6) were adoptively transferred i.v. on the next day. Tumor volumes were measured three times a week with a caliper and calculated using the formula: V=π×[d2×D]/6, where d is the minor tumor axis and D is the major tumor axis. Tumors were collected and separated from skin. Single cell suspensions were obtained with the Mouse Tumor Dissociation Kit (Miltenyi, 130-096-730) according to the manufacturer protocol. Spleen and draining lymph node were smashed on a 70 µm cell strainer. Single cell suspensions were stained with antibodies before flow cytometry analysis.
Polyclonal CD8 T cells from wild type mice were activated in the presence of DMSO or 20 μM UK5099 and then retrovirally transduced with a control blue fluorescent protein-expressing retroviral construct (BFP) or with HER2-CAR (FIG. 6A). […] More UK5099-HER2CAR T cells were engrafted in the tumor-draining lymph nodes, while CAR T cell numbers in the spleen were similar (FIGS. 6C and 6D). […] As in the spleen, more tumor-infiltrating UK5099-treated CAR T cells expressed TCF1 (FIG. 6G). […] Finally, fewer UK5099-treated CAR T cells were expressing the inhibitory molecules PD1 and TIM3, indicating a less exhausted phenotype (FIG. 6J).

[3] = 20 μM during production, vs DMSO
[4] = co-expression of TCF1 with PD1, vs DMSO

N#CC(=Cc1cn(-c2ccccc2)c2ccccc12)C(=O)O [UK5099, 2-cyano-3-(1-phenyl-1H-indol-3-yl)-2-propenoic acid]
acetylation of lysine 27 on histone 3 (H3K27-Ac) [1]: increase | trimethylation of lysine 4 on histone 3 (H3K4-3Me) [1]: increase | CAR T cell numbers in the spleen [2, 3]: similar | HER2CAR T cells engrafted in the tumor-draining lymph nodes [2, 3]: More | percentage of splenic HER2CAR T cells expressing TCF1 [2, 3]: higher percentage | tumor growth after HER2CAR T cell ACT ([2]; CAR T cells produced with 20 μM UK5099, 5×10^6 T cells i.v.): significantly suppress tumor growth | progenitor exhausted T cells (TCF1-positive) among CAR T cells in the tumor [2, 4]: more | terminally differentiated exhausted T cells (TCF1-negative) among CAR T cells in the tumor [2, 4]: less | CAR T cells expressing the inhibitory molecules PD1 and TIM3 ([2]; in the tumor, vs DMSO): fewer | CAR T cells in tumors ([2]; per mg of tumor, vs DMSO): significantly more | tumor-infiltrating CAR T cells expressing TCF1 ([2]; vs DMSO): more
